Results on one compound are retold here after patent US20120308673A1, “COMPOSITION COMPRISING THE EXTRACT OF PRUNELLA VULGARIS L. FOR PREVENTING AND TREATING ADHD DISEASE AND THE USE THEREOF” (priority 2009, published 2012).

Assay [1] relates to SHR animal model. Put plainly: Effect on alternation behavior of SHR animal model (modified Y-maze test). The conditions noted are these: 8 min period, dose dependent, p<0.05, FIG. 3. Type of assay: in vivo, rat. As for the experimental part:
To test the inhibitory effect of the extract of […] prepared in Example 1 on the alternation behavior of SHR animals, following modified Y-maze test was performed according to the procedure disclosed in the literature (Sarter M., et al., Attenuation of scopolamine-induced impairment of spontaneous alternation by antagonist but not agonist and agonist beta-carbolines, (1988), Psychopharmacology (Berl). 94:491-495; Kim D. H. et al, Gomisin A improves scopolamine-induced memory impairment in mice, (2006), Eur. J. Pharmacol., 542:129-235).
The Y-maze test was conducted in a three-arm maze with angles of 120° between the arms designates as A, B and C respectively, which were 42 cm long and 3 cm wide with walls that were 12 cm high each. The maze floor and walls were constructed from dark opaque polyvinyl plastic. Mice were initially placed within one arm and the sequence and number of arm entries were recorded manually for each mouse over an 8 min period. The percentage of triads in which all the arms were represented, i.e., ABC, CAB or BCA but not BAB, was recorded as an ‘alternation’ to estimate short-term memory. Control group animals received 0.9% saline solution and scopolamine (1 mg/kg, i.p.) or vehicle was introduced to induce memory impairment 30 mins before the test. […] The alternation score (%) for each mouse was calculated according to following math formula 1: […]

Assay [2] concerns SHR animal model. Put plainly: Effect on hyperactivity of SHR animal model (total movement distance and duration in test box). Type of assay: in vivo, rat. The conditions noted are these: 3 mg/kg intraperitoneally, 30 mins after treatment, recorded for 10 mins. Here is the method:
To test the inhibitory effect of the extract of […] prepared in Example 1 on the hyperactivity of SHR animals, following test was performed according to the procedure disclosed in the literature (Kong, W. X et al., Effect on taurine on rat behaviors in three anxiety models, (2006), Pharmacology Biochem., Behavior 83:271-276; Arulmozhi D. K. et al, Pharmacological studies of the aqueous extract of Sapindus trifoliatus on central nervous system: possible ant-migraine mechanism, J. Ethnophamacol., 97:491-496).
The rats were acclimated with the environment for 1 week and with apparatus more than once for 10 mins prior to test. PV70E and PVW prepared in Example 1 used as test groups as well as methylphenidate (Johnson Mattey Public Limited Co.) used as a positive control were intraperitoneally administered into mice in a dose of 3 mg/kg.
30 mins after the treatment with test samples, the SHR mice, i.e., ADHD animal models, and normal mice used as negative control were placed on the test box to examine the movement of mice and to determine the total movement distance and total movement duration of the mice for 10 mins using by analysis apparatus (EthoVision system; Noldus IT b.v., Netherland).

Take `COC(=O)C(c1ccccc1)C1CCCCN1` (stereo not drawn) [methylphenidate]: the “alternation behavior of SHR” value in the assay with SHR animal model [1] is reported as “inhibiting effect”. The “general movement of SHR (total movement distance and rearing number)” value in the assay on SHR animal model [2] (SHR, FIGS. 1 and 2) is recorded as “did not affect”. In addition, the “movement of normal mice” value in the assay on SHR animal model [2] (normal mice) is recorded as “increased the movement”.
